Results: PubChem BioAssay AID1963980 (Molecular Pharmacology Branch, DTP, NCI, 2024)
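Note: spheroids exposed to agents for seven days before readout.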

These compounds were tested on 475296-252-R-J1-PDC spheroid viability (assay: Anticancer human tumor 475296-252-R-J1-PDC patient-derived rectal carcinoma cell line growth inhibition [PI3K]). Conditions: second compound 0.316 µM; first compound 0.1 µM; active compounds read low; spheroids with HUVEC and MSC.
How it was run: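 We assembled tumor spheroids that included a stromal compartment of HUVEC and MSCs, then exposed them to targeted agents alone and together with PI3K pathway inhibitors. Concentration series descended by half-log from clinically achievable Cmax levels. Viability served as the endpoint.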
Compound CC(Cn1ccc(-c2ccc(C#N)c(Cl)c2)n1)NC(=O)c1cc(C(C)O)[nH]n1 (configuration not stated) + CC(Nc1ccc2c(c1)OCCn1cc(N3C(=O)OCC3C(F)F)nc1-2)C(N)=O has a viability, T/C of 107%. Work on CC1(C)CCC(Nc2ncc(C(F)(F)F)c(-c3c[nH]c4c(P(C)(C)=O)c(C#N)ccc34)n2)CN1 (configuration not stated) + CC(Nc1ccc2c(c1)OCCn1cc(N3C(=O)OCC3C(F)F)nc1-2)C(N)=O yielded a viability, T/C of 92.5%.

Same assay, conditions: second compound 0.316 µM; first compound 0.316 µM; active compounds read low; spheroids with HUVEC and MSC
Work on C#Cc1c(F)ccc2cc(O)cc(-c3ncc4c(N5CC6CCC(C5)N6)nc(OCC56CCCN5CC(F)C6)nc4c3F)c12 (configuration not stated) + CC(Nc1ccc2c(c1)OCCn1cc(N3C(=O)OCC3C(F)F)nc1-2)C(N)=O yielded a viability, T/C of 86.6%. CC(Cn1ccc(-c2ccc(C#N)c(Cl)c2)n1)NC(=O)c1cc(C(C)O)[nH]n1 (configuration not stated) + CC(Nc1ccc2c(c1)OCCn1cc(N3C(=O)OCC3C(F)F)nc1-2)C(N)=O gave a viability, T/C of 91%. With CC1(C)CCC(Nc2ncc(C(F)(F)F)c(-c3c[nH]c4c(P(C)(C)=O)c(C#N)ccc34)n2)CN1 (configuration not stated) + CC(Nc1ccc2c(c1)OCCn1cc(N3C(=O)OCC3C(F)F)nc1-2)C(N)=O the viability, T/C was 104%.

Same assay, conditions: second compound 0.316 µM; first compound 1 µM; active compounds read low; spheroids with HUVEC and MSC
C#Cc1c(F)ccc2cc(O)cc(-c3ncc4c(N5CC6CCC(C5)N6)nc(OCC56CCCN5CC(F)C6)nc4c3F)c12 (configuration not stated) + CC(Nc1ccc2c(c1)OCCn1cc(N3C(=O)OCC3C(F)F)nc1-2)C(N)=O showed a viability, T/C of 61.3%. CC(Cn1ccc(-c2ccc(C#N)c(Cl)c2)n1)NC(=O)c1cc(C(C)O)[nH]n1 (configuration not stated) + CC(Nc1ccc2c(c1)OCCn1cc(N3C(=O)OCC3C(F)F)nc1-2)C(N)=O showed a viability, T/C of 89.7%. Compound CC1(C)CCC(Nc2ncc(C(F)(F)F)c(-c3c[nH]c4c(P(C)(C)=O)c(C#N)ccc34)n2)CN1 (configuration not stated) + CC(Nc1ccc2c(c1)OCCn1cc(N3C(=O)OCC3C(F)F)nc1-2)C(N)=O has a viability, T/C of 111%.

Same assay, conditions: second compound 0.316 µM; first compound 3.16 µM; active compounds read low; spheroids with HUVEC and MSC
C#Cc1c(F)ccc2cc(O)cc(-c3ncc4c(N5CC6CCC(C5)N6)nc(OCC56CCCN5CC(F)C6)nc4c3F)c12 (configuration not stated) + CC(Nc1ccc2c(c1)OCCn1cc(N3C(=O)OCC3C(F)F)nc1-2)C(N)=O gave a viability, T/C of 36.5%. For CC(Cn1ccc(-c2ccc(C#N)c(Cl)c2)n1)NC(=O)c1cc(C(C)O)[nH]n1 (configuration not stated) + CC(Nc1ccc2c(c1)OCCn1cc(N3C(=O)OCC3C(F)F)nc1-2)C(N)=O, the viability, T/C was 90.8%. CC1(C)CCC(Nc2ncc(C(F)(F)F)c(-c3c[nH]c4c(P(C)(C)=O)c(C#N)ccc34)n2)CN1 (configuration not stated) + CC(Nc1ccc2c(c1)OCCn1cc(N3C(=O)OCC3C(F)F)nc1-2)C(N)=O gave a viability, T/C of 147%.

Same assay, conditions: second compound 0.316 µM; first compound 10 µM; active compounds read low; spheroids with HUVEC and MSC
C#Cc1c(F)ccc2cc(O)cc(-c3ncc4c(N5CC6CCC(C5)N6)nc(OCC56CCCN5CC(F)C6)nc4c3F)c12 (configuration not stated) + CC(Nc1ccc2c(c1)OCCn1cc(N3C(=O)OCC3C(F)F)nc1-2)C(N)=O was tested, and the viability, T/C was 18.1%. Compound CC(Cn1ccc(-c2ccc(C#N)c(Cl)c2)n1)NC(=O)c1cc(C(C)O)[nH]n1 (configuration not stated) + CC(Nc1ccc2c(c1)OCCn1cc(N3C(=O)OCC3C(F)F)nc1-2)C(N)=O has a viability, T/C of 89.5%. Compound CC1(C)CCC(Nc2ncc(C(F)(F)F)c(-c3c[nH]c4c(P(C)(C)=O)c(C#N)ccc34)n2)CN1 (configuration not stated) + CC(Nc1ccc2c(c1)OCCn1cc(N3C(=O)OCC3C(F)F)nc1-2)C(N)=O has a viability, T/C of 66.5%.

Same assay, conditions: second compound 1 µM; first compound 0.0316 µM; active compounds read low; spheroids with HUVEC and MSC
C#Cc1c(F)ccc2cc(O)cc(-c3ncc4c(N5CC6CCC(C5)N6)nc(OCC56CCCN5CC(F)C6)nc4c3F)c12 (configuration not stated) + CC(Nc1ccc2c(c1)OCCn1cc(N3C(=O)OCC3C(F)F)nc1-2)C(N)=O was tested, and the viability, T/C was 92.1%. Compound CC(Cn1ccc(-c2ccc(C#N)c(Cl)c2)n1)NC(=O)c1cc(C(C)O)[nH]n1 (configuration not stated) + CC(Nc1ccc2c(c1)OCCn1cc(N3C(=O)OCC3C(F)F)nc1-2)C(N)=O has a viability, T/C of 92%. CC1(C)CCC(Nc2ncc(C(F)(F)F)c(-c3c[nH]c4c(P(C)(C)=O)c(C#N)ccc34)n2)CN1 (configuration not stated) + CC(Nc1ccc2c(c1)OCCn1cc(N3C(=O)OCC3C(F)F)nc1-2)C(N)=O gave a viability, T/C of 94.7%.

Same assay, conditions: second compound 1 µM; first compound 0.1 µM; active compounds read low; spheroids with HUVEC and MSC
For C#Cc1c(F)ccc2cc(O)cc(-c3ncc4c(N5CC6CCC(C5)N6)nc(OCC56CCCN5CC(F)C6)nc4c3F)c12 (configuration not stated) + CC(Nc1ccc2c(c1)OCCn1cc(N3C(=O)OCC3C(F)F)nc1-2)C(N)=O, the viability, T/C was 75.1%. CC(Cn1ccc(-c2ccc(C#N)c(Cl)c2)n1)NC(=O)c1cc(C(C)O)[nH]n1 (configuration not stated) + CC(Nc1ccc2c(c1)OCCn1cc(N3C(=O)OCC3C(F)F)nc1-2)C(N)=O was tested, and the viability, T/C was 83.1%. With CC1(C)CCC(Nc2ncc(C(F)(F)F)c(-c3c[nH]c4c(P(C)(C)=O)c(C#N)ccc34)n2)CN1 (configuration not stated) + CC(Nc1ccc2c(c1)OCCn1cc(N3C(=O)OCC3C(F)F)nc1-2)C(N)=O the viability, T/C was 88.4%.

Same assay, conditions: second compound 1 µM; first compound 0.316 µM; active compounds read low; spheroids with HUVEC and MSC
C#Cc1c(F)ccc2cc(O)cc(-c3ncc4c(N5CC6CCC(C5)N6)nc(OCC56CCCN5CC(F)C6)nc4c3F)c12 (configuration not stated) + CC(Nc1ccc2c(c1)OCCn1cc(N3C(=O)OCC3C(F)F)nc1-2)C(N)=O was tested, and the viability, T/C was 67.4%. CC(Cn1ccc(-c2ccc(C#N)c(Cl)c2)n1)NC(=O)c1cc(C(C)O)[nH]n1 (configuration not stated) + CC(Nc1ccc2c(c1)OCCn1cc(N3C(=O)OCC3C(F)F)nc1-2)C(N)=O was tested, and the viability, T/C was 87.9%. CC1(C)CCC(Nc2ncc(C(F)(F)F)c(-c3c[nH]c4c(P(C)(C)=O)c(C#N)ccc34)n2)CN1 (configuration not stated) + CC(Nc1ccc2c(c1)OCCn1cc(N3C(=O)OCC3C(F)F)nc1-2)C(N)=O was tested, and the viability, T/C was 96.4%.

Same assay, conditions: second compound 1 µM; first compound 1 µM; active compounds read low; spheroids with HUVEC and MSC
For C#Cc1c(F)ccc2cc(O)cc(-c3ncc4c(N5CC6CCC(C5)N6)nc(OCC56CCCN5CC(F)C6)nc4c3F)c12 (configuration not stated) + CC(Nc1ccc2c(c1)OCCn1cc(N3C(=O)OCC3C(F)F)nc1-2)C(N)=O, the viability, T/C was 52.8%. Compound CC(Cn1ccc(-c2ccc(C#N)c(Cl)c2)n1)NC(=O)c1cc(C(C)O)[nH]n1 (configuration not stated) + CC(Nc1ccc2c(c1)OCCn1cc(N3C(=O)OCC3C(F)F)nc1-2)C(N)=O has a viability, T/C of 93.5%. For CC1(C)CCC(Nc2ncc(C(F)(F)F)c(-c3c[nH]c4c(P(C)(C)=O)c(C#N)ccc34)n2)CN1 (configuration not stated) + CC(Nc1ccc2c(c1)OCCn1cc(N3C(=O)OCC3C(F)F)nc1-2)C(N)=O, the viability, T/C was 105%.

Same assay, conditions: second compound 1 µM; first compound 3.16 µM; active compounds read low; spheroids with HUVEC and MSC
Work on C#Cc1c(F)ccc2cc(O)cc(-c3ncc4c(N5CC6CCC(C5)N6)nc(OCC56CCCN5CC(F)C6)nc4c3F)c12 (configuration not stated) + CC(Nc1ccc2c(c1)OCCn1cc(N3C(=O)OCC3C(F)F)nc1-2)C(N)=O yielded a viability, T/C of 16.9%. In the case of CC(Cn1ccc(-c2ccc(C#N)c(Cl)c2)n1)NC(=O)c1cc(C(C)O)[nH]n1 (configuration not stated) + CC(Nc1ccc2c(c1)OCCn1cc(N3C(=O)OCC3C(F)F)nc1-2)C(N)=O, the viability, T/C is reported as 80.6%. CC1(C)CCC(Nc2ncc(C(F)(F)F)c(-c3c[nH]c4c(P(C)(C)=O)c(C#N)ccc34)n2)CN1 (configuration not stated) + CC(Nc1ccc2c(c1)OCCn1cc(N3C(=O)OCC3C(F)F)nc1-2)C(N)=O showed a viability, T/C of 113%.

Same assay, conditions: second compound 1 µM; first compound 10 µM; active compounds read low; spheroids with HUVEC and MSC
In the case of C#Cc1c(F)ccc2cc(O)cc(-c3ncc4c(N5CC6CCC(C5)N6)nc(OCC56CCCN5CC(F)C6)nc4c3F)c12 (configuration not stated) + CC(Nc1ccc2c(c1)OCCn1cc(N3C(=O)OCC3C(F)F)nc1-2)C(N)=O, the viability, T/C is reported as 9.3%. CC(Cn1ccc(-c2ccc(C#N)c(Cl)c2)n1)NC(=O)c1cc(C(C)O)[nH]n1 (configuration not stated) + CC(Nc1ccc2c(c1)OCCn1cc(N3C(=O)OCC3C(F)F)nc1-2)C(N)=O was tested, and the viability, T/C was 83.4%. For CC1(C)CCC(Nc2ncc(C(F)(F)F)c(-c3c[nH]c4c(P(C)(C)=O)c(C#N)ccc34)n2)CN1 (configuration not stated) + CC(Nc1ccc2c(c1)OCCn1cc(N3C(=O)OCC3C(F)F)nc1-2)C(N)=O, the viability, T/C was 63.1%.
